ChEMBL document CHEMBL4229534, “Amelioration of mechanism-based inactivation of CYP3A4 by a H-PGDS inhibitor” (Bioorg Med Chem Lett, 2018)
pIC50: −log10 of the molar value.

How the values were obtained:
[1] = target: Hematopoietic prostaglandin D synthase (Homo sapiens, UniProt O60760); assay: Inhibition of HPGDS (unknown origin)
[2] = target: T1, Cytochrome P450 3A4 (Homo sapiens, UniProt P08684); assay: Mechanism based inactivation of CYP3A4 in human liver microsomes assessed as apparent partition ratio by measuring ratio of number of inactivator molecules that get metabolized to number of enzyme molecules inactivated using midazolam as substrate; format: ADME
T1 sequence (P08684 whole entry): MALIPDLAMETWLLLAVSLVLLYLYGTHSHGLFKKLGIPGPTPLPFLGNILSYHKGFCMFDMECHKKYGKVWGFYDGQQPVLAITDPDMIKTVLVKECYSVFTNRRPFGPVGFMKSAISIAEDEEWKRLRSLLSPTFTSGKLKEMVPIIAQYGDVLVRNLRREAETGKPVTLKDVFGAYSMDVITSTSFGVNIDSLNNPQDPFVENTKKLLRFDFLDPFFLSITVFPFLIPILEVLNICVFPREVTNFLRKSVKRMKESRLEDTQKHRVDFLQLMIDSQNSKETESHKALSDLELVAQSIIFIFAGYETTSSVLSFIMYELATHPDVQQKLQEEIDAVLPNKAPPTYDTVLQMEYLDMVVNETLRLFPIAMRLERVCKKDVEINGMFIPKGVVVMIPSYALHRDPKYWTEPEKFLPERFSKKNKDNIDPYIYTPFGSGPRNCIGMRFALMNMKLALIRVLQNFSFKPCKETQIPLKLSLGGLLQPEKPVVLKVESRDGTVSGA

[3] = target: T1, Cytochrome P450 3A4; assay: Mechanism based inactivation of recombinant human CYP3A4 assessed as apparent partition ratio by measuring ratio of number of inactivator molecules that get metabolized to number of enzyme molecules inactivated using testosterone as substrate; format: ADME
[4] = target: T2, CYP3A4 (Homo sapiens, UniProt P08684); assay: (§1) Inhibition of recombinant human CYP3A4 assessed as residual activity using testosterone as substrate relative to control; format: ADME; conditions: recombinant human CYP3A4, probe testosterone
T2 sequence (P08684 whole entry): as above

[5] = target: T1, Cytochrome P450 3A4; assay: Mechanism based inactivation of recombinant human CYP3A4 assessed as apparent partition ratio by measuring ratio of number of inactivator molecules that get metabolized to number of enzyme molecules inactivated using midazolam as substrate; format: ADME
[6] = target: T2, CYP3A4; assay: Inhibition of CYP3A4 in human liver microsomes assessed as residual activity using testosterone as substrate relative to control; format: ADME; parameters: concentration or dose not given beside the values; conditions: probe testosterone
[7] = target: T2, CYP3A4; assay: Inhibition of CYP3A4 in human liver microsomes assessed as residual activity using midazolam as substrate relative to control; format: ADME; parameters: concentration or dose not given beside the values; conditions: probe midazolam
[8] = target: T2, CYP3A4; assay: (§2) Inhibition of recombinant human CYP3A4 assessed as residual activity using midazolam as substrate relative to control; format: ADME; conditions: recombinant human CYP3A4, probe midazolam
[9] = target: T1, Cytochrome P450 3A4; assay: as §1; format: ADME; conditions: recombinant enzyme
[10] = target: T1, Cytochrome P450 3A4; assay: as §2; format: ADME; conditions: recombinant enzyme
[11] = target: T1, Cytochrome P450 3A4; assay: Mechanism based inactivation of CYP3A4 in human liver microsomes assessed as apparent partition ratio by measuring ratio of number of inactivator molecules that get metabolized to number of enzyme molecules inactivated using testosterone as substrate; format: ADME

Hematopoietic prostaglandin D synthase, sequence (O60760 whole entry): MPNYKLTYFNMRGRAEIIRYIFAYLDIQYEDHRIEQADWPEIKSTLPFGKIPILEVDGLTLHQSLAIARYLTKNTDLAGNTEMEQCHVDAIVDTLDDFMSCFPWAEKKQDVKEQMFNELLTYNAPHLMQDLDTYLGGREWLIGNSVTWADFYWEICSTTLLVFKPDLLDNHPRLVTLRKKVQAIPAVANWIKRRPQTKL

Row | pIC50 [1] | Ratio [2] | Ratio [3] | activity [4] [%] | Ratio [5] | activity [6] [%] | activity [7] [%] | activity [8] [%] | activity [9] | activity [10] | Ratio [11] | SMILES
1 | 7.64 |  |  |  |  |  |  |  |  |  |  | CC(C)(CO)NS(=O)(=O)c1cccc(CNC(=O)c2cnc(-c3cccc(F)c3)nc2)c1
2 | 8.02 |  |  |  |  |  |  |  |  |  |  | CNS(=O)(=O)c1cccc(CNC(=O)c2cnc(-c3cccc(F)c3)nc2C)c1
3 | 8.52 | 338 | 460 | 22 | 326 | > 70 | 57 | 19 |  |  |  | COc1ccc2c(n1)c(C)cn2NC(=O)c1cnc(-c2ccccn2)nc1C
4 | 8.00 |  | 842 | 59 | 1119 | 91 | 100 | 57 |  |  |  | Cc1nc(-c2ccccn2)ncc1C(=O)Nn1ccc2c(C(F)(F)F)cccc21
5 | 8.10 |  |  |  |  | 90 | 95 |  | Not Active | Not Active |  | Cc1nc(-c2ncccn2)ncc1C(=O)Nn1ccc2c(C(F)(F)F)cccc21
6 |  | 170 to 173 |  |  |  | 20 | 30 |  |  |  | 160 to 167 | Cc1nc(-c2ccccn2)ncc1C(=O)Nn1cc(C)c2cc(F)ccc21
7 | 8.22 |  |  |  |  | 91 | 79 |  |  |  |  | Cc1nc(-c2ccccn2)ncc1C(=O)Nn1cc(C)c2nc(F)ccc21
